The text below walks through data of patent US20060160824A1, “Indole derivatives as serotonin reuptake inhibitors” (priority 2003, published 2006).

One experiment addresses 5-HT4 receptor (Homo sapiens, UniProt Q13639). The experiment is described as follows: 5-HT4 receptor binding test.
In the next experiment the target is T1, 5-HT1A receptor (Rattus norvegicus, UniProt P19327).
T1 construct: from tissue
T1 sequence (P19327 1-422): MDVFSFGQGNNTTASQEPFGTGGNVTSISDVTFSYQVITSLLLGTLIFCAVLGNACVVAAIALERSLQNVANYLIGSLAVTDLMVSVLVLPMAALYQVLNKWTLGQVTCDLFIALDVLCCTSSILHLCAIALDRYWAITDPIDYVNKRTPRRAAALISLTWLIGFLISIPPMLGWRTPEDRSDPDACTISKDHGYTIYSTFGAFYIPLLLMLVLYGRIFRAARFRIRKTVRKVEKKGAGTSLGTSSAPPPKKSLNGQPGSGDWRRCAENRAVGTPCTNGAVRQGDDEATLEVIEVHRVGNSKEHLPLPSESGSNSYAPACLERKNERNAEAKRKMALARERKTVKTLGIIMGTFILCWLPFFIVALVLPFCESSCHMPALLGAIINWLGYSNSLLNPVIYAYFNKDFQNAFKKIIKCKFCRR
The experiment is described as follows: 5-HT1A receptor binding test. The text has this:
In particular, they inhibit 5-HT reuptake. […] Due to a 5-HT-agonistic action and 5-HT reuptake inhibition, serotonin remains in the synaptic cleft for longer and the serotonin action is reinforced. Active ingredients having such properties are therefore particularly suitable as antidepressants and anxiolytics. The compounds of the formula I inhibit the binding of tritiated serotonin ligands to hippocampal receptors (Cossery et al., European J. Pharmacol. 140 (1987), 143-155) and synaptosomal serotonin reuptake (Sherman et al., Life Sci. 23 (1978), 1863-1870).
The 5-HT1A-agonistic action can be measured in vitro, for example, with the aid of the (serotonin) binding test, as described by Matzen et al. (J. Med. Chem., 43 (2000), 1149-57), in particular on page 1156 with reference to Eur. J. Pharmacol., 140 (1987), 143-155. In addition, the 5-HT1A-agonistic action can be measured with the aid of the GTPgammaS test described by Newman-Tancredi et al. (Eur. J. Pharmacol. 307 (1996), 107-11).

Sequence of 5-HT4 receptor (Q13639 whole entry): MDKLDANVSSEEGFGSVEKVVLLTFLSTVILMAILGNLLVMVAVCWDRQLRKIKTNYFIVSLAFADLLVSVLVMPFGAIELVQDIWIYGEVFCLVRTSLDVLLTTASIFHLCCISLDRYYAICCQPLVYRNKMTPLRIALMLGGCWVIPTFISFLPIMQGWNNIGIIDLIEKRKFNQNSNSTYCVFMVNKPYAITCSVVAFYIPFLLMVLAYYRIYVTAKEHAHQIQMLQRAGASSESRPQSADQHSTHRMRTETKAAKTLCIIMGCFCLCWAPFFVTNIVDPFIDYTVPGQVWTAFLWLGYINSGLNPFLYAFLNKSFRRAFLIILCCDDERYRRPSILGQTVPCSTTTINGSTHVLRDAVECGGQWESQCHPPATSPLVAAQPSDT

On to `Cn1cc(CCCCN2CCN(c3ccc4oc(C(N)=O)cc4c3)CC2)c2cc(C#N)ccc21` [Example 1, 5-{4-[4-(5-cyano-1-methyl-1H-indol-3-yl)butyl]piperazin-1-yl}-benzofuran-2-carboxamide], for which the results for the IC50 at 5-HT4 receptor and on 5-HT1A receptor were 21 nM and 96 nM, respectively.
